Test results reported in patent US11241437B2, “Heterocyclic compounds, preparation methods and uses thereof” (InventisBio Co., Ltd., priority 2019, dated 2022).
≈ marks a conversion by molar mass, not a printed value. Where two headings read alike, the source gives them in different places.

Assays:
Assay type in all cases: physicochemical
[1] = Solubility of Compound 1 solid forms in bio-relevant media and water
Method: Solubility Studies: Solubility of Form IV was tested in three bio-relevant media (Simulated Gastric Fluid (SGF), Fasted State Simulated Intestinal Fluid (FaSSIF), and Fed State Simulated Intestinal Fluid (FeSSIF)) and water. […] Form IV (˜10 mg) was weighed into 2 mL of four media to make suspensions respectively, and about 10 mg of the amorphous starting material was also added into 2 mL of FaSSIF. Then all suspensions were shaken at 37° C. with 200 rpm for up to 24 hours. At 0.5, 2 and 24 hours, about 0.7 mL of each suspension was filtered. The filtrate was analyzed by HPLC and pH meter, and the residual solids were also checked by XRPD at 24 hours.

[2] = Stability studies of Form IV of Compound 1 (HPLC and XRPD)
Method: Method 1. a representative HPLC method is shown below, which can be used, for example, to analyze the purity, solubility, and stability of Compound 1 herein.
Stability Studies: Appropriate amounts of Form IV were put at 40° C./75% RH, 60° C. and 25±2° C./92.5% RH conditions for 14 days. Then the sample was tested by HPLC and XRPD to determine the chemical and physical stability.

[3] = Dynamic moisture sorption analysis (DVS) of Form IV of Compound 1
Method: Method 1. Used for studies with solid state of Compound 1. Moisture sorption/desorption data was collected on a DVS Intrinsic (SMS, UK). The sample was placed into a tared sample chamber and automatically weighed. The sample was dried at 40° C. until the dm/dt was less than 0.002% and cooled to 25° C. Set the instrument parameters as below.

[4] = Polymorph characterization summary of Compound 1 forms (form stability)
From the text: In the polymorph screening, five XRPD Patterns (FIG. 11) were generated, and four forms were identified including 2 anhydrates and 2 hydrates.

[5] = Mechanical stability (grinding) of Form IV of Compound 1; details: ground for 2 and 5 min
Method: Form IV was also tested for mechanical stability. In this case, appropriate amount of Form IV was ground for 2 and 5 min, and then tested by XRPD to check the crystal form.

[6] = Interconversion studies of solid forms of Compound 1 (slurry); details: water or MeOH/water (1/4) at RT and 50° C. for 3 days
Method: Interconversion Studies: Equal amounts (˜7 mg) of Form I, II and III were mixed together and then suspended in 0.5 mL of different solvents at room temperature or 50° C., respectively. Residual solids were collected by filtration and characterized at appropriate time. Additionally, Form IV (˜12 mg) was slurried in 0.5 ml, water or MeOH/water (1/4) at RT or 50° C. for 3 days. Residual solids were collected by filtration and analyzed by XRPD.

Compound `C=CC(=O)N1C[C@H](C)N(c2nc(=O)n(-c3c(C4CC4)ncnc3C3CC3)c3nc(-c4c(N)cccc4F)c(Cl)cc23)C[C@H]1C` [Form IV] has a Solubility ([1]; FaSSIF, 37° C., 0.5 h) of 0.017 mg/mL (≈ 27.6 µM), a Solubility ([1]; FaSSIF, 37° C., 2 h) of 0.016 mg/mL (≈ 26 µM) and a Solubility ([1]; FaSSIF, 37° C., 24 h) of 0.021 mg/mL (≈ 34.1 µM). For the same compound, the “XRPD-24 h of residual solids” value ([1]; FaSSIF, 37° C., 24 h) was “unchanged”, the “Solubility in FaSSIF” value ([1]; FaSSIF, time point not stated) was 0.02 mg/mL (≈ 32.5 µM) and the “XRPD-24 h of residual solids” value ([1]; FeSSIF, 37° C., 24 h) was “unchanged”. The solubility at 0.5 h ([1]; FeSSIF, 37 °C, thermodynamic from solid, 0.5 h) was 37 µg/mL (≈ 60.2 µM), the solubility at 2 h ([1]; FeSSIF, 37 °C, thermodynamic from solid, 2 h) was 37 µg/mL (≈ 60.2 µM) and the solubility at 24 h ([1]; FeSSIF, 37 °C, thermodynamic from solid, 24 h) was 62 µg/mL (≈ 101 µM). The “XRPD-24 h of residual solids” value ([1]; SGF, 37° C., 24 h) was “unchanged”, the solubility at 0.5 h ([1]; SGF, 37 °C, simulated gastric fluid, thermodynamic from solid, 0.5 h) was 36 µg/mL (≈ 58.5 µM) and the solubility at 2 h ([1]; SGF, 37 °C, simulated gastric fluid, thermodynamic from solid, 2 h) was 34 µg/mL (≈ 55.3 µM). For the same compound, the solubility at 24 h ([1]; SGF, 37 °C, simulated gastric fluid, thermodynamic from solid, 24 h) was 36 µg/mL (≈ 58.5 µM), the Solubility ([1]; SGF, FeSSIF, water, 37 °C, thermodynamic from solid, media other than FaSSIF (SGF, FeSSIF, water), read-out: Solubility in other media) was < 0.07 mg/mL and the “XRPD-24 h of residual solids” value ([1]; Water, 37° C., 24 h) was “unchanged”. For the same compound, the solubility at 0.5 h ([1]; water, 37 °C, thermodynamic from solid, 0.5 h) was 14 µg/mL (≈ 22.8 µM), the solubility at 2 h ([1]; water, 37 °C, thermodynamic from solid, 2 h) was 11 µg/mL (≈ 17.9 µM) and the solubility at 24 h ([1]; water, 37 °C, thermodynamic from solid, 24 h) was 9 µg/mL (≈ 14.6 µM). For the same compound, the Purity ([2]; 40° C./75% RH, 7 D) was 98.21 Area %, the Purity ([2]; 40° C./75% RH, 14 D) was 98.12 Area % and the “Physical stability, XRPD” value ([2]; 40° C./75% RH, 60° C. and 25° C./92.5% RH, 14 days) was “XRPD remained unchanged”. For the same compound, the “Chemical stability, impurities” value ([2]; 60° C. for 2 weeks) was “a new impurity was detected”, the Purity ([2]; 60° C., 7 D) was 97.98 Area % and the Purity ([2]; 60° C., 14 D) was 97.88 Area %. For the same compound, the Purity-initial ([2]; initial, before storage) was 98.30 Area %, the “Crystal form after DVS testing” value [3] was “remained unchanged” and the “Hygroscopicity (DVS)” value ([3]; 25° C.) was “slightly hygroscopic”. The “Water uptake (DVS)” value ([3]; at 80% RH, 25° C.) was “about 1.37%”, the “Stability of the solid form” value [4] was “Stable form, slightly” and the “Crystal form after grinding (XRPD)” value [5] was “no new form was generated”. For the same compound, the “Form after slurry in aqueous systems (XRPD)” value [6] was “remained unchanged”.
